Reference: US9765060B2 (Gilead Sciences, Inc., priority 2014, dated 2017)

Each compound was assayed against PI3K isoform δ (Homo sapiens (Human), UniProt O00329) (assay: TR-FRET assay of enzymatic activity of class I PI3K isoforms). Conditions: not given.
PI3K isoform δ, sequence (O00329 whole entry, canonical isoform): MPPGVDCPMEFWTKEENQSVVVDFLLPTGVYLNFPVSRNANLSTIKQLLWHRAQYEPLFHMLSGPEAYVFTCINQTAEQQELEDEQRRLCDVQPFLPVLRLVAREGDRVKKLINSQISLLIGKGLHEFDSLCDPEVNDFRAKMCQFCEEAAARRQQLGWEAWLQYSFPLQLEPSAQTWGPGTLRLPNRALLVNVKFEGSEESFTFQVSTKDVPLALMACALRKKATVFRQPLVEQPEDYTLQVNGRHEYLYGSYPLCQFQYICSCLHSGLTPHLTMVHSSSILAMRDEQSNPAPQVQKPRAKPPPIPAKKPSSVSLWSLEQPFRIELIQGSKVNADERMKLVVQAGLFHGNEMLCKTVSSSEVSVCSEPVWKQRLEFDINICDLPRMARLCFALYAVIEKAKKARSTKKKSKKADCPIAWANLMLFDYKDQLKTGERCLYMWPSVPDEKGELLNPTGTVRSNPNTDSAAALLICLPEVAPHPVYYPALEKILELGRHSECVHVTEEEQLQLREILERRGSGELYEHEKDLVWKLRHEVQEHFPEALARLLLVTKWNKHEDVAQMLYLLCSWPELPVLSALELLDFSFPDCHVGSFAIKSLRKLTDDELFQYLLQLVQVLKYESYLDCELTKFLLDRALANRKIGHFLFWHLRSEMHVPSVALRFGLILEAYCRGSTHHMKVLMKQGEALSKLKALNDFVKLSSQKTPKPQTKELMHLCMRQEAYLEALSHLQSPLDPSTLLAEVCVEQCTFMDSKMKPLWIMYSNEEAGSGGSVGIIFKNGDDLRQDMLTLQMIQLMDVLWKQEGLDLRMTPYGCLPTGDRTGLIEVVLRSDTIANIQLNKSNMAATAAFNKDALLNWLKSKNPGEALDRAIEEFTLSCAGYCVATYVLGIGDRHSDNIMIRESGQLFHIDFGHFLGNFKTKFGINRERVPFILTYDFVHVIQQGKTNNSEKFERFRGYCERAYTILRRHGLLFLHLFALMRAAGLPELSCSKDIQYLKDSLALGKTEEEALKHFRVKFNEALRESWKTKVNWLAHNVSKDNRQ
PI3K isoform δ, sequence (P27986 whole entry partner, canonical isoform): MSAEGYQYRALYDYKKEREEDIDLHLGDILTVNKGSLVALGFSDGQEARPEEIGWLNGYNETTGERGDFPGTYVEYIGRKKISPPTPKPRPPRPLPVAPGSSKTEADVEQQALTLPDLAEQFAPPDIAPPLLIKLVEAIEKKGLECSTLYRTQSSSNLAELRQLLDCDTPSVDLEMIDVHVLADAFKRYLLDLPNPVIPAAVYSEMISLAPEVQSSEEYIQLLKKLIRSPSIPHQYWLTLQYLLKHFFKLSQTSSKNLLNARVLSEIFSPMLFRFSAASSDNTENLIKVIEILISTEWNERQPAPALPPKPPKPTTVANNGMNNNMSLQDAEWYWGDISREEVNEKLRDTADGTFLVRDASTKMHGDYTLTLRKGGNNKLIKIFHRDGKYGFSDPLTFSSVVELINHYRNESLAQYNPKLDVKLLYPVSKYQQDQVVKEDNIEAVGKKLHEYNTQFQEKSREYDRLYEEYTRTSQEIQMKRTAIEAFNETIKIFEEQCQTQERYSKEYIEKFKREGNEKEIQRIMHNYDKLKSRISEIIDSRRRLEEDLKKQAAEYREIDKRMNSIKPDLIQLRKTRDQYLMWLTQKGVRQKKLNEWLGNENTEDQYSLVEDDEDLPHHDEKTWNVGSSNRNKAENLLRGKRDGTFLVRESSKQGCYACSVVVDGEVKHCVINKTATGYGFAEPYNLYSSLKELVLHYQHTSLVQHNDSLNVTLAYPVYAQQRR

Row | SMILES | IC50
1 | CO[C@H]1C[C@@H](c2nc3cccc(Cl)c3c(=O)n2-c2cc(F)cc(F)c2)N(c2nc(N)nc(N)c2C#N)C1 [Compound 19, 2,4-diamino-6-((2S)-2-(5-chloro-3-(3,5-difluorophenyl)-4-oxo-3,4-dihydroquinazolin-2-yl)-4-methoxypyrrolidin-1-yl)pyrimidine-5-carbonitrile] | 9 nM

Same assay, conditions: IC50 (nM) for PI3K isoform δ (Table 2), TR-FRET; 2× Km ATP, 2 μM PIP2; incubated for 30 minutes at 25° C.

Row | SMILES | IC50
2 | CS(=O)(=O)c1cccc2nc(C(Nc3nc(N)nc(N)c3C#N)C3CC3)n(-c3ccccc3F)c(=O)c12 (single isomer, unassigned) [Compound 17a-2] | 8 nM

Same assay, conditions: read-out: IC50 (nM) for PI3K isoform δ (Table 2); TR-FRET; 2× Km ATP, 2 μM PIP2; incubated for 30 minutes at 25° C.

Row | SMILES | IC50
3 | CN(C)C(=O)C[C@H](Nc1nc(N)nc(N)c1C#N)c1nc2cccc(Cl)c2c(=O)n1-c1ccccc1 [Compound 10a, (S)-3-(5-chloro-4-oxo-3-phenyl-3,4-dihydroquinazolin-2-yl)-3-((2,6-diamino-5-cyanopyrimidin-4-yl)amino)-N,N-dimethylpropanamide] | 2 nM
4 | N#Cc1c(N)nc(N)nc1N[C@H](c1nc2cccc(C#N)c2c(=O)n1-c1ccccc1)C1CC1 [Compound 1a, (S)-2-(cyclopropyl((2,6-diamino-5-cyanopyrimidin-4-yl)amino)methyl)-4-oxo-3-phenyl-3,4-dihydroquinazoline-5-carbonitrile] | 5 nM
5 | N#Cc1c(N)nc(N)nc1N[C@@H](c1ccccc1)c1nc2cccc(Cl)c2c(=O)n1-c1ccccc1 [Compound 3a, (S)-2,4-diamino-6-(((5-chloro-4-oxo-3-phenyl-3,4-dihydroquinazoline-2-yl)(phenyl)methyl)amino)pyrimidine-5-carbonitrile] | 0.3 nM
6 | N#Cc1c(N)nc(N)nc1N[C@H](c1nc2ccc(F)c(C#N)c2c(=O)n1-c1ccccc1)C1CC1 [Compound 8a, (S)-2-(cyclopropyl((2,6-diamino-5-cyanopyrimidin-4-yl)amino)methyl)-6-fluoro-4-oxo-3-phenyl-3,4-dihydroquinazoline-5-carbonitrile] | 2 nM
7 | Cc1cccc2nc([C@@H](Nc3nc(N)nc(N)c3C#N)C3CC3)n(-c3cc(F)cc(F)c3)c(=O)c12 [Compound 12a, (S)-2,4-diamino-6-((cyclopropyl(3-(3,5-difluorophenyl)-5-methyl-4-oxo-3,4-dihydroquinazolin-2-yl)methyl)amino)pyrimidine-5-carbonitrile] | 1 nM
8 | N#Cc1c(N)nc(N)nc1N[C@H](c1nc2ccc(F)c(C#N)c2c(=O)n1-c1cccc(F)c1)C1CC1 [Compound 7a, (S)-2-(cyclopropyl((2,6-diamino-5-cyanopyrimidin-4-yl)amino)methyl)-6-fluoro-3-(3-fluorophenyl)-4-oxo-3,4-dihydroquinazoline-5-carbonitrile] | 6 nM
9 | CN(C)C(=O)C[C@H](Nc1nc(N)nc(N)c1C#N)c1nc2cccc(Cl)c2c(=O)n1-c1cc(F)cc(F)c1 [Compound 9a, (S)-3-(5-chloro-3-(3,5-difluorophenyl)-4-oxo-3,4-dihydroquinazolin-2-yl)-3-((2,6-diamino-5-cyanopyrimidin-4-yl)amino)-N,N-dimethylpropanamide] | 61 nM
10 | N#Cc1c(N)nc(N)nc1N[C@H](c1nc2ccc(F)cc2c(=O)n1-c1cccc(F)c1)C1CC1 [Compound 16a, (S)-2,4-diamino-6-((cyclopropyl(6-fluoro-3-(3-fluorophenyl)-4-oxo-3,4-dihydroquinazolin-2-yl)methyl)amino)pyrimidine-5-carbonitrile] | 4 nM

Same assay, conditions: read-out: IC50 (nM) for PI3K isoform δ (Table 3); TR-FRET; 2× Km ATP, 2 μM PIP2; incubated for 30 minutes at 25° C.

Row | SMILES | IC50
11 | N#Cc1c(N)nc(N)nc1N1C[C@H](NC(=O)CC2CC2)C[C@H]1c1nc2cccc(Cl)c2c(=O)n1-c1ccccc1 [Compound 114, N-((3R,5S)-5-(5-chloro-4-oxo-3-phenyl-3,4-dihydroquinazolin-2-yl)-1-(2,6-diamino-5-cyanopyrimidin-4-yl)pyrrolidin-3-yl)-2,2-cyclopropylacetamide] | 0.9 nM
12 | C[C@H](Nc1nc(N)nc(N)c1C#N)c1nc2c(F)ccc(CCC(N)=O)c2c(=O)n1-c1ccccc1 [Compound 38, (S)-3-(2-(1-((2,6-diamino-5-cyanopyrimidin-4-yl)amino)ethyl)-8-fluoro-4-oxo-3-phenyl-3,4-dihydroquinazoline-5-yl)propanamide] | 0.5 nM
13 | C[C@H](Nc1nc(N)nc(N)c1C#N)c1nc2cccc(CCCN3CCC(F)(F)C3)c2c(=O)n1-c1ccccc1 [Compound 47, (S)-2,4-diamino-6-((1-(5-(3-(3,3-difluoropyrrolidin-1-yl)propyl)-4-oxo-3-phenyl-3,4-dihydroquinazolin-2-yl)ethyl)amino)pyrimidine-5-carbonitrile] | 2 nM
14 | CS(=O)(=O)c1cccc2nc([C@@H]3CCCN3c3nc(N)nc(N)c3C#N)n(-c3c(F)cccc3F)c(=O)c12 [Compound 75, (S)-2,4-diamino-6-(2-(3-(2,6-difluorophenyl)-5-(methylsulfonyl)-4-oxo-3,4-dihydroquinazolin-2-yl)pyrrolidin-1-yl)pyrimidine-5-carbonitrile] | 1.2 nM
15 | N#Cc1c(N)nc(N)nc1N[C@H](c1nc2c(F)ccc(CCCN3CCCC3)c2c(=O)n1-c1ccccc1)C1CC1 [Compound 58, (S)-2,4-diamino-6-((cyclopropyl(8-fluoro-4-oxo-3-phenyl-5-(3-(pyrrolidin-1-yl)propyl)-3,4-dihydroquinazolin-2-yl)methyl)amino)pyrimidine-5-carbonitrile] | 3 nM
16 | C[C@H](Nc1nc(N)nc(N)c1C#N)c1nc2c(F)ccc(CCC(N)=O)c2c(=O)n1-c1cc(F)cc(F)c1 [Compound 39, (S)-3-(2-(1-((2,6-diamino-5-cyanopyrimidin-4-yl)amino)ethyl)-3-(3,5-difluorophenyl)-8-fluoro-4-oxo-3,4-dihydroquinazoline-5-yl)propanamide] | 2 nM
17 | C[C@H](Nc1nc(N)nc(N)c1C#N)c1nc2cccc(S(=O)(=O)c3ccccc3)c2c(=O)n1-c1cccc(F)c1 [Compound 76, (S)-2,4-diamino-6-((1-(3-(3-fluorophenyl)-4-oxo-5-(phenylsulfonyl)-3,4-dihydroquinazolin-2-yl)ethyl)amino)pyrimidine-5-carbonitrile] | 1.3 nM
18 | C[C@H](Nc1nc(N)nc(N)c1C#N)c1nc2cccc(CCCN3CCOCC3(C)C)c2c(=O)n1-c1ccccc1 [Compound 53, (S)-2,4-diamino-6-((1-(5-(3-(3,3-dimethylmorpholino)propyl)-4-oxo-3-phenyl-3,4-dihydroquinazolin-2-yl)ethyl)amino)pyrimidine-5-carbonitrile] | 0.7 nM
19 | C[C@H](Nc1nc(N)nc(Cl)c1C#N)c1nc2cccc(Cl)c2c(=O)n1-c1cc(F)cc(F)c1 [Compound 105, (S)-2-amino-4-chloro-6-((1-(5-chloro-3-(3,5-difluorophenyl)-4-oxo-3,4-dihydroquinazolin-2-yl)ethyl)amino)pyrimidine-5-carbonitrile] | 2 nM
20 | C[C@H](Nc1nc(N)nc(N)c1C#N)c1nc2cccc(CCCN3CCC4(CC3)COC4)c2c(=O)n1-c1ccccc1 [Compound 64, (S)-4-((1-(5-(3-(2-oxa-7-azaspiro[3.5]nonan-7-yl)propyl)-4-oxo-3-phenyl-3,4-dihydroquinazolin-2-yl)ethyl)amino)-2,6-diaminopyrimidine-5-carbonitrile] | 30 nM
21 | N#Cc1c(N)nc(N)nc1N1CCC[C@H]1c1nc2cccc(C#N)c2c(=O)n1-c1ccccc1 [Compound 89, (S)-2-(1-(2,6-diamino-5-cyanopyrimidin-4-yl)pyrrolidin-2-yl)-4-oxo-3-phenyl-3,4-dihydroquinazoline-5-carbonitrile] | 2 nM
22 | C[C@H](Nc1nc(N)nc(N)c1C#N)c1nc2cccc(S(=O)(=O)C3CCCC3)c2c(=O)n1-c1cccc(F)c1 [Compound 80, (S)-2,4-diamino-6-((1-(5-(cyclopentylsulfonyl)-3-(3-fluorophenyl)-4-oxo-3,4-dihydroquinazolin-2-yl)ethyl)amino)pyrimidine-5-carbonitrile] | 61 nM
23 | C[C@H](Nc1nc(N)nc(N)c1C#N)c1nc2cccc(CCC(N)=O)c2c(=O)n1-c1cc(F)cc(F)c1 [Compound 40, (S)-3-(2-(1-((2,6-diamino-5-cyanopyrimidin-4-yl)amino)ethyl)-3-(3,5-difluorophenyl)-4-oxo-3,4-dihydroquinazoline-5-yl)propanamide] | 4 nM
24 | N#Cc1c(N)nc(N)nc1N1CC[C@H]1c1nc2cccc(Cl)c2c(=O)n1-c1ccccc1 [Compound 68, (S)-2,4-diamino-6-(2-(5-chloro-4-oxo-3-phenyl-3,4-dihydroquinazolin-2-yl)azetidin-1-yl)pyrimidine-5-carbonitrile] | 30 nM
25 | N#Cc1c(N)nc(N)nc1N1C[C@H](NC(=O)C(F)F)C[C@H]1c1nc2cccc(Cl)c2c(=O)n1-c1ccccc1 [Compound 107, N-((3R,5S)-5-(5-chloro-4-oxo-3-phenyl-3,4-dihydroquinazolin-2-yl)-1-(2,6-diamino-5-cyanopyrimidin-4-yl)pyrrolidin-3-yl)-2,2-difluoroacetamide] | 0.4 nM
26 | C[C@H](Nc1nc(N)nc(N)c1C#N)c1nc2cccc(OCCC3CCCN3C)c2c(=O)n1-c1ccccc1 (stereo partly drawn) [Compound 33, 2,4-diamino-6-(((1S)-1-(5-(2-(1-methylpyrrolidin-2-yl)ethoxy)-4-oxo-3-phenyl-3,4-dihydroquinazolin-2-yl)ethyl)amino)pyrimidine-5-carbonitrile] | 24 nM
27 | C[C@H](Nc1nc(N)nc(N)c1Cl)c1nc2c(F)ccc(CCC(N)=O)c2c(=O)n1-c1cc(F)cc(F)c1 [Compound 41, (S)-3-(2-(1-((2,6-diamino-5-chloropyrimidin-4-yl)amino)ethyl)-3-(3,5-difluorophenyl)-8-fluoro-4-oxo-3,4-dihydroquinazoline-5-yl)propanamide] | 25 nM
28 | N#Cc1c(N)nc(N)nc1N1CC[C@H]1c1nc2cccc(Cl)c2c(=O)n1-c1cc(F)cc(F)c1 [Compound 67, (S)-2,4-diamino-6-(2-(5-chloro-3-(3,5-difluorophenyl)-4-oxo-3,4-dihydroquinazolin-2-yl)azetidin-1-yl)pyrimidine-5-carbonitrile] | 110 nM
